The values that follow come from patent US10568937B2, “Formulations of abaloparatide, transdermal patches thereof, and uses thereof” (priority 2016, dated 2020).

Experiment [1] concerns rat femur fracture model. Put plainly: Rat femur fracture model, fracture healing. It is filed as in vivo. From the text: Certain embodiments of the methods disclosed herein also include the use of the microprojection arrays as described herein in their various embodiments to accelerate fracture healing in a patient who has suffered one or more fractures and for which the fractures are not completely healed. Healing of bone fractures (eg long bone fractures) involves endochondral and intramembranous bone formation, which together form a callus that achieves union, stabilization, and gradual recovery of bone strength. […] Sixteen rats from each group were necropsied after 4 and 6 weeks of healing, with 12 fractured femurs per group used for micro-CT and biomechanical testing and the other 4 femurs used for micro-CT and histology.

The nature of experiment [2]: Subcutaneous 80 μg abaloparatide versus placebo: fractures, BMD, TBS. Conditions: subcutaneous administration. The experiment is classed as in vivo. Here is the method: In certain embodiments, the abaloparatide-SC treatment comprises subcutaneous administration of an aqueous formulation comprising abaloparatide (about 2 mg/mL) in an acetate buffer, with a pH of about 4.5 to about 5.6, or about 5.1. Optionally, the aqueous formulation further comprises phenol (about 5 mg/mL). In certain examples of these embodiments, the acetate buffer comprises tri-hydrate sodium acetate (about 5 mg/mL) with pH (e.g., about 4.5 to about 5.6, or about 5.1) adjusted with acetic acid. Unless specifically stated otherwise, comparative abaloparatide sc dose use an 80 μg dose delivered subcutaneously to the periumbilicular region of the abdomen of the patient.

In experiment [3] the test system is ovariectomy-induced osteopenic rats and monkeys. Conditions: cited from earlier work.

“[Glu^22,25, Leu^23,28,31, Aib^29, Lys^26,30]hPTHrP(1-34)NH2 [abaloparatide]”: the “callus stiffness, higher vs VEH” value in experiment [1] (5 ug/kg/d, week 4, three-point bending) is reported as 60%; in experiment [1] (5 ug/kg/d, week 6), 112%; in experiment [1] (25 ug/kg/d, week 4, three-point bending), 96%. The “callus peak load, higher vs VEH” value in experiment [1] (25 ug/kg/d, week 4) is 77%. Moreover, the “callus area (histomorphometry)” value in experiment [1] (5 and 25 ug/kg/d, week 4, vs VEH) was “significantly greater callus area”. The “callus bone volume, bone volume fraction, and BMC (micro-CT)” value in experiment [1] (5 and 25 ug/kg/d, weeks 4 and 6, vs VEH) is “significantly greater”. Besides, the “cortical bridging across the fracture gap (semi-quantitative histologic scoring)” value in experiment [1] (5 or 25 ug/kg/d sc daily, week 4, vs VEH) is on record as “significantly greater bridging”. Further, the “callus peak load vs VEH” value in experiment [1] (both abaloparatide groups, week 6) is given as “numerically higher”. Also, the “BMD and/or TBS at the lumbar spine, total hip, and femoral neck” value in experiment [2] is recorded as “improve”. Moreover, the bone loss entry in experiment [3] is recorded as “complete reversal of bone loss”.
